{"source": "paper PMC10337138", "about": "(Acta Neuropathologica Communications, 2023)", "settings_in_all_cases": "1 mM ATP; inhibitor", "key": {"BRSK2": {"molecular_target": "BRSK2 (Homo sapiens, UniProt Q8IWQ3)", "sequence (Q8IWQ3 whole entry)": "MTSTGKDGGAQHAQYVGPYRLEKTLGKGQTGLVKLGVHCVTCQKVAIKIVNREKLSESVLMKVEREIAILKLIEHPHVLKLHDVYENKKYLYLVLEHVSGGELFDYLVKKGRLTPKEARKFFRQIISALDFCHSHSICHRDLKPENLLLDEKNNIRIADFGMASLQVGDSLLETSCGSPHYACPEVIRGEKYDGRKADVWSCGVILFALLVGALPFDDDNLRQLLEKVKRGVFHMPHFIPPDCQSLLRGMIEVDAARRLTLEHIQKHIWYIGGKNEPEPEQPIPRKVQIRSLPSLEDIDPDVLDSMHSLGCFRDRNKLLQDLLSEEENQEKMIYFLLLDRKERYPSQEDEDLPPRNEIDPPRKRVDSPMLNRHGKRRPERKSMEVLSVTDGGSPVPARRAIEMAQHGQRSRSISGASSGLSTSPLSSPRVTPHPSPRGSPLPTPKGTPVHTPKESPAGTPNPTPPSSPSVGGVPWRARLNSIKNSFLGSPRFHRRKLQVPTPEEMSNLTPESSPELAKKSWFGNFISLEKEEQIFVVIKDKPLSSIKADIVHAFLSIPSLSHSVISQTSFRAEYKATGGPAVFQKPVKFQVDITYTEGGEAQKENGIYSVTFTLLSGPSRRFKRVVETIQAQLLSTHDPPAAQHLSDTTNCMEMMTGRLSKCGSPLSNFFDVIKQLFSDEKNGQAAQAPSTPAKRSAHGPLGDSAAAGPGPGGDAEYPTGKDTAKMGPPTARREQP", "experimental": "(§1) Kinase selectivity panel Kinome profiling was conducted by AssayQuant Technologies (Marlboro, MA) using Sox chromophore technology and Sox-based peptide substrates developed for human kinases in a 384-well format. Compounds were tested at 1 µM in the presence of 1 mM ATP."}, "DAPK2": {"molecular_target": "DAPK2 (Homo sapiens, UniProt Q9UIK4)", "experimental": "as §1"}, "DRAK2": {"molecular_target": "T1, DRAK2 (Homo sapiens, UniProt O94768)", "T1 construct": "gene STK17B", "experimental": "as §1"}, "EIF2AK4/GCN2": {"molecular_target": "EIF2AK4/GCN2 (Homo sapiens, UniProt Q9P2K8)", "experimental": "as §1"}, "EPHA5": {"molecular_target": "EPHA5 (Homo sapiens, UniProt P54756)", "experimental": "as §1"}, "EPHB4": {"molecular_target": "EPHB4 (Homo sapiens, UniProt P54760)", "sequence (P54760 whole entry)": "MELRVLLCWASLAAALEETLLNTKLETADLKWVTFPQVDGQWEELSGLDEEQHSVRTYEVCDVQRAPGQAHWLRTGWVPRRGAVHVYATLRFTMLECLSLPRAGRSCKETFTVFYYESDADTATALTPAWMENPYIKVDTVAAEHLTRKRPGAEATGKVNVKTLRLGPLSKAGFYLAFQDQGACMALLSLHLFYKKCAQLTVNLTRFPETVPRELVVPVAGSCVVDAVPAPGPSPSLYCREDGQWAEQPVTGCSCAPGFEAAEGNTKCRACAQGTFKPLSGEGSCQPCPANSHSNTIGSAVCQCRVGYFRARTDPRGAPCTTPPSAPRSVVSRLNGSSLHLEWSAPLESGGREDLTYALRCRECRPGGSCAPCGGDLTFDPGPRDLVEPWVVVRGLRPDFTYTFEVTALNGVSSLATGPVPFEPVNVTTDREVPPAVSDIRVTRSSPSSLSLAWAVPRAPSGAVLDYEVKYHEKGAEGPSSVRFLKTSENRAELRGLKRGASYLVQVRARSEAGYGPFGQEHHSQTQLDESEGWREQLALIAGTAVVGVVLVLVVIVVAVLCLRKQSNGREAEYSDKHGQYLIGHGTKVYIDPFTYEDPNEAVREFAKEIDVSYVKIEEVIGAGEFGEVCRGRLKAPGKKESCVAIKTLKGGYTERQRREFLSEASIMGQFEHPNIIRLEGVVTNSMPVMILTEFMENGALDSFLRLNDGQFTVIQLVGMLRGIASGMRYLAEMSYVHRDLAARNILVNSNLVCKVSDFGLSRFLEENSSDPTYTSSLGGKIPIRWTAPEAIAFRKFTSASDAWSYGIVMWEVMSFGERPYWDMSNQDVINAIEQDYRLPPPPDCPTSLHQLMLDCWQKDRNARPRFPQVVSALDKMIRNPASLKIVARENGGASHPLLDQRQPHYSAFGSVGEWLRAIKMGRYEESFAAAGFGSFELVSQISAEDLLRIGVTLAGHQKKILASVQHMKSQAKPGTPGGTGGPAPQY", "experimental": "as §1"}, "FAM20C": {"molecular_target": "FAM20C (Homo sapiens, UniProt Q8IXL6)", "experimental": "as §1"}, "KIT": {"molecular_target": "KIT (Homo sapiens, UniProt P10721)", "experimental": "as §1"}, "LRRK2": {"molecular_target": "LRRK2 (Homo sapiens, UniProt Q5S007)", "experimental": "as §1"}, "MAP2K1/MEK1": {"molecular_target": "MAP2K1/MEK1 (Homo sapiens, UniProt Q02750)", "experimental": "as §1"}, "MAP3K3": {"molecular_target": "MAP3K3 (Homo sapiens, UniProt Q99759)", "experimental": "as §1"}, "MAP3K5": {"molecular_target": "MAP3K5 (Homo sapiens, UniProt Q99683)", "experimental": "as §1"}, "MAP3K8": {"molecular_target": "MAP3K8 (Homo sapiens, UniProt P41279)", "experimental": "as §1"}, "MAP4K5/KSH1": {"molecular_target": "MAP4K5/KSH1 (Homo sapiens, UniProt Q9Y4K4)", "experimental": "as §1"}, "MAPK11/P38B": {"molecular_target": "MAPK11/P38B (Homo sapiens, UniProt Q15759)", "experimental": "as §1"}, "MAPK14/P38A": {"molecular_target": "MAPK14/P38A (Homo sapiens, UniProt Q16539)", "sequence (Q16539 whole entry)": "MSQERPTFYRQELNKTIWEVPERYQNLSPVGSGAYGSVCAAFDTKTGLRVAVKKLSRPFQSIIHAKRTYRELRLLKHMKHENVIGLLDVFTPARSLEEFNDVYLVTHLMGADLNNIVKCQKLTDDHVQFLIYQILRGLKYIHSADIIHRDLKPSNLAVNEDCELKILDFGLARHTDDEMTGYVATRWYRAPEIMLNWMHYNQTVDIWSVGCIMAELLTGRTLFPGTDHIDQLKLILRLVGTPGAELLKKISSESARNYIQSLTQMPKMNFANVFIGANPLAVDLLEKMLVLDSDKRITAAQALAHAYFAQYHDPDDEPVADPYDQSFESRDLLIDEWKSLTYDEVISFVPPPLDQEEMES", "experimental": "as §1"}, "NEK7": {"molecular_target": "NEK7 (Homo sapiens, UniProt Q8TDX7)", "sequence (Q8TDX7 whole entry)": "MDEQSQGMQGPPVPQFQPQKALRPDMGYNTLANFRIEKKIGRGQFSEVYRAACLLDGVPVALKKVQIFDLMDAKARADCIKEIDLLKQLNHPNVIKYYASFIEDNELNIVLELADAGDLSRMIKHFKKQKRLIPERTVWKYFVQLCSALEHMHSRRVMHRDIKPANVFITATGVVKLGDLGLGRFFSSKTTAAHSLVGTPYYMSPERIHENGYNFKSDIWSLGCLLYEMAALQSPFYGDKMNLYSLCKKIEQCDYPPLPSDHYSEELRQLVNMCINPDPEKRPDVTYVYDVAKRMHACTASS", "experimental": "as §1"}, "NLK": {"molecular_target": "NLK (Homo sapiens, UniProt Q9UBE8)", "experimental": "as §1"}, "PDHK3": {"molecular_target": "T2, PDHK3 (Homo sapiens, UniProt Q15120)", "T2 construct": "gene PDK3", "experimental": "as §1"}, "PKN1": {"molecular_target": "PKN1 (Homo sapiens, UniProt Q16512)", "experimental": "as §1"}, "PKN2": {"molecular_target": "PKN2 (Homo sapiens, UniProt Q16513)", "sequence (Q16513 whole entry)": "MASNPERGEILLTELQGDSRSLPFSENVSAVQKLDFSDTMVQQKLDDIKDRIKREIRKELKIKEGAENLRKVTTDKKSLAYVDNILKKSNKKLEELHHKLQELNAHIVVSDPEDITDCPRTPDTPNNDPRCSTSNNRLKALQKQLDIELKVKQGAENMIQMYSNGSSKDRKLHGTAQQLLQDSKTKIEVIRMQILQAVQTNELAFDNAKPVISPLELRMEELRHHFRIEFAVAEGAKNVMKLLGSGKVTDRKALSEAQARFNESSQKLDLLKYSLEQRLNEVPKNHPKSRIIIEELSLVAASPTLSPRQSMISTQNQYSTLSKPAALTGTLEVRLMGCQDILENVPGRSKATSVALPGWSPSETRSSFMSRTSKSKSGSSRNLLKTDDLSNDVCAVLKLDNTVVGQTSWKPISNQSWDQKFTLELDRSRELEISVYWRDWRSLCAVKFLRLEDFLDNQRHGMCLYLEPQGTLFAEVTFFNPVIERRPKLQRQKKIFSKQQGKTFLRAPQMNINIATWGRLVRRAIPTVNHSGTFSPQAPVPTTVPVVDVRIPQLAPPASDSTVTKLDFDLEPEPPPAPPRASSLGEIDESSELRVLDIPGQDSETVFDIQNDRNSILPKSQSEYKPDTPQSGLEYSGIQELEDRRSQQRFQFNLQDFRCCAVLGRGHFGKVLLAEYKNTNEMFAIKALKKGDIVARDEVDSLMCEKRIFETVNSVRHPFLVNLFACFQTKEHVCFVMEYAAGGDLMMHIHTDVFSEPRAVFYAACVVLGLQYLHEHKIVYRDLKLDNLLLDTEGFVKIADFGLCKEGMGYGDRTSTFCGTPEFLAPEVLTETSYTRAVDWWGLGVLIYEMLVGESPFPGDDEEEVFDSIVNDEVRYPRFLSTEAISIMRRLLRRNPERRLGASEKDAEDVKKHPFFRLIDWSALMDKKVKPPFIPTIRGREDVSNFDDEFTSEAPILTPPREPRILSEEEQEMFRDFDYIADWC", "experimental": "as §1"}, "PRKAA2/AMPK211": {"molecular_target": "PRKAA2/AMPK211 (Homo sapiens, UniProt P54646)", "experimental": "as §1"}, "PRKAA2/AMPK221": {"molecular_target": "PRKAA2/AMPK221 (Homo sapiens, UniProt P54646)", "experimental": "as §1"}, "PRKACB": {"molecular_target": "PRKACB (Homo sapiens, UniProt P22694)", "experimental": "as §1"}, "PRKCB1/PKCB1": {"molecular_target": "T3, PRKCB1/PKCB1 (Homo sapiens, UniProt P05771)", "T3 construct": "gene PRKCB", "experimental": "as §1"}, "PRKCB2/PKCB2": {"molecular_target": "T4, PRKCB2/PKCB2 (Homo sapiens, UniProt P05771)", "T4 construct": "gene PRKCB", "experimental": "as §1"}, "RAF1": {"molecular_target": "RAF1 (Homo sapiens, UniProt P04049)", "experimental": "as §1"}, "RIPK1": {"molecular_target": "RIPK1 (Homo sapiens, UniProt Q13546)", "experimental": "as §1"}, "ROCK2": {"molecular_target": "ROCK2 (Homo sapiens, UniProt O75116)", "experimental": "as §1"}, "ROS": {"molecular_target": "T5, ROS (Homo sapiens, UniProt P08922)", "T5 construct": "gene ROS1", "experimental": "as §1"}, "SGK3": {"molecular_target": "SGK3 (Homo sapiens, UniProt Q96BR1)", "sequence (Q96BR1 whole entry)": "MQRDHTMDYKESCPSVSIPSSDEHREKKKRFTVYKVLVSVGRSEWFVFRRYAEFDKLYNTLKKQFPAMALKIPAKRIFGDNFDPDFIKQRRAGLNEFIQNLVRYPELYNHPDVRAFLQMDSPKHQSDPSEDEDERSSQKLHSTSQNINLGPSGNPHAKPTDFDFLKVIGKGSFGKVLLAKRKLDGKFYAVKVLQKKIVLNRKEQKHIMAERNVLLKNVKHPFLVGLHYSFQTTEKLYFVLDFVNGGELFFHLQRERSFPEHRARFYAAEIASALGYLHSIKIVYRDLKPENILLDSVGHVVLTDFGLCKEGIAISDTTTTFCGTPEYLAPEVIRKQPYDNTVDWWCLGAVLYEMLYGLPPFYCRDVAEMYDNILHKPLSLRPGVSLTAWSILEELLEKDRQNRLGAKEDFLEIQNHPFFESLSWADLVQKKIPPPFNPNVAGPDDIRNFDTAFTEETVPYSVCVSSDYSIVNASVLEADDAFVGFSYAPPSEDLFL", "experimental": "as §1"}, "SNRK": {"molecular_target": "SNRK (Homo sapiens, UniProt Q9NRH2)", "experimental": "as §1"}, "SYK": {"molecular_target": "SYK (Homo sapiens, UniProt P43405)", "experimental": "as §1"}, "TAOK2": {"molecular_target": "TAOK2 (Homo sapiens, UniProt Q9UL54)", "experimental": "as §1"}, "TNIK": {"molecular_target": "TNIK (Homo sapiens, UniProt Q9UKE5)", "experimental": "as §1"}, "TSSK6": {"molecular_target": "TSSK6 (Homo sapiens, UniProt Q9BXA6)", "experimental": "as §1"}, "ULK1": {"molecular_target": "ULK1 (Homo sapiens, UniProt O75385)", "sequence (O75385 whole entry)": "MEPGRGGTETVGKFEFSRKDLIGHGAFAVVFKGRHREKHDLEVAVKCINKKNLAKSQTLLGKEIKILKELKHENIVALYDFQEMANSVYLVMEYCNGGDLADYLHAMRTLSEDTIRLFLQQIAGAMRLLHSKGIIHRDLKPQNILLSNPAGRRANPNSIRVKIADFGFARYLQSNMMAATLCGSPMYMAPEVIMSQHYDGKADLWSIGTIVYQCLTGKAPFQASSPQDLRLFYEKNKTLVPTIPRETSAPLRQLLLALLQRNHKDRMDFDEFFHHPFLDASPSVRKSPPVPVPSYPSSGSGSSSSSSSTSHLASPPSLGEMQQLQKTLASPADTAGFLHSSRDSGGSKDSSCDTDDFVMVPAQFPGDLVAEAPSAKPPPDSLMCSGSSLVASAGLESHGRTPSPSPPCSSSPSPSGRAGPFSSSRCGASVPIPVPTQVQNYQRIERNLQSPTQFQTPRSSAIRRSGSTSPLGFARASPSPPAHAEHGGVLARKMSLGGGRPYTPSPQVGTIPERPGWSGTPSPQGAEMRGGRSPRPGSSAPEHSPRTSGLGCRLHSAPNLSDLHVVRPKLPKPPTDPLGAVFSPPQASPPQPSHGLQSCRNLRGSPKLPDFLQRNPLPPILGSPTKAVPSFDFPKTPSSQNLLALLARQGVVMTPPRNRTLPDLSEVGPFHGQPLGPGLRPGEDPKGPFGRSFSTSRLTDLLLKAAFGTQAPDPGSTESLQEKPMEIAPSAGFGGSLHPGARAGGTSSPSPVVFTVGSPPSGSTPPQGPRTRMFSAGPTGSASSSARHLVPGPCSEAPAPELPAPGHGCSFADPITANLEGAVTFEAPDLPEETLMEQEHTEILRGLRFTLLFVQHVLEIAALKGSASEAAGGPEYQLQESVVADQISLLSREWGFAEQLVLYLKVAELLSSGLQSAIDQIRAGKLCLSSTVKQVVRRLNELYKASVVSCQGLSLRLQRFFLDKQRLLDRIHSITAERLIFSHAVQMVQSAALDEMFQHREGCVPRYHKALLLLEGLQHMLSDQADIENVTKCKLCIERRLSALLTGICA", "experimental": "as §1"}, "YSK4": {"molecular_target": "T6, YSK4 (Homo sapiens, UniProt Q56UN5)", "T6 construct": "gene MAP3K19", "experimental": "as §1"}}, "data": [{"smiles": "C=CC(=O)N1CCC[C@@H](n2nc(-c3ccc(Oc4ccccc4)cc3)c3c(N)ncnc32)C1", "note": "[Ibrutinib]", "values": [{"measurement": "1 µM GBD00276 (ibrutinib), % inhibition", "setting": "BRSK2", "value": -9.3, "unit": "%"}, {"measurement": "1 µM GBD00276 (ibrutinib), % inhibition", "setting": "DAPK2", "value": 19.22, "unit": "%"}, {"measurement": "1 µM GBD00276 (ibrutinib), % inhibition", "setting": "DRAK2", "value": 1.899, "unit": "%"}, {"measurement": "1 µM GBD00276 (ibrutinib), % inhibition", "setting": "EIF2AK4/GCN2", "value": -3.934, "unit": "%"}, {"measurement": "1 µM GBD00276 (ibrutinib), % inhibition", "setting": "EPHA5", "value": -3.884, "unit": "%"}, {"measurement": "1 µM GBD00276 (ibrutinib), % inhibition", "setting": "EPHB4", "value": 10.75, "unit": "%"}, {"measurement": "1 µM GBD00276 (ibrutinib), % inhibition", "setting": "FAM20C", "value": 3.541, "unit": "%"}, {"measurement": "1 µM GBD00276 (ibrutinib), % inhibition", "setting": "KIT", "value": 2.778, "unit": "%"}, {"measurement": "1 µM GBD00276 (ibrutinib), % inhibition", "setting": "LRRK2", "value": -5.334, "unit": "%"}, {"measurement": "1 µM GBD00276 (ibrutinib), % inhibition", "setting": "MAP2K1/MEK1", "value": -19, "unit": "%"}, {"measurement": "1 µM GBD00276 (ibrutinib), % inhibition", "setting": "MAP3K3", "value": 0.2657, "unit": "%"}, {"measurement": "1 µM GBD00276 (ibrutinib), % inhibition", "setting": "MAP3K5", "value": -3.817, "unit": "%"}, {"measurement": "1 µM GBD00276 (ibrutinib), % inhibition", "setting": "MAP3K8", "value": -11.27, "unit": "%"}, {"measurement": "1 µM GBD00276 (ibrutinib), % inhibition", "setting": "MAP4K5/KSH1", "value": 14.55, "unit": "%"}, {"measurement": "1 µM GBD00276 (ibrutinib), % inhibition", "setting": "MAPK11/P38B", "value": -0.6084, "unit": "%"}, {"measurement": "1 µM GBD00276 (ibrutinib), % inhibition", "setting": "MAPK14/P38A", "value": 4.135, "unit": "%"}, {"measurement": "1 µM GBD00276 (ibrutinib), % inhibition", "setting": "NEK7", "value": -0.8851, "unit": "%"}, {"measurement": "1 µM GBD00276 (ibrutinib), % inhibition", "setting": "NLK", "value": -34.47, "unit": "%"}, {"measurement": "1 µM GBD00276 (ibrutinib), % inhibition", "setting": "PDHK3", "value": 2.509, "unit": "%"}, {"measurement": "1 µM GBD00276 (ibrutinib), % inhibition", "setting": "PKN1", "value": -1.102, "unit": "%"}, {"measurement": "1 µM GBD00276 (ibrutinib), % inhibition", "setting": "PKN2", "value": 2.374, "unit": "%"}, {"measurement": "1 µM GBD00276 (ibrutinib), % inhibition", "setting": "PRKAA2/AMPK211", "value": 12.3, "unit": "%"}, {"measurement": "1 µM GBD00276 (ibrutinib), % inhibition", "setting": "PRKAA2/AMPK221", "value": 4.802, "unit": "%"}, {"measurement": "1 µM GBD00276 (ibrutinib), % inhibition", "setting": "PRKACB", "value": -25.42, "unit": "%"}, {"measurement": "1 µM GBD00276 (ibrutinib), % inhibition", "setting": "PRKCB1/PKCB1", "value": -10.64, "unit": "%"}, {"measurement": "1 µM GBD00276 (ibrutinib), % inhibition", "setting": "PRKCB2/PKCB2", "value": -15.35, "unit": "%"}, {"measurement": "1 µM GBD00276 (ibrutinib), % inhibition", "setting": "RAF1", "value": -13.81, "unit": "%"}, {"measurement": "1 µM GBD00276 (ibrutinib), % inhibition", "setting": "RIPK1", "value": -33.95, "unit": "%"}, {"measurement": "1 µM GBD00276 (ibrutinib), % inhibition", "setting": "ROCK2", "value": 8.461, "unit": "%"}, {"measurement": "1 µM GBD00276 (ibrutinib), % inhibition", "setting": "ROS", "value": 2.485, "unit": "%"}, {"measurement": "1 µM GBD00276 (ibrutinib), % inhibition", "setting": "SGK3", "value": 7.387, "unit": "%"}, {"measurement": "1 µM GBD00276 (ibrutinib), % inhibition", "setting": "SNRK", "value": 6.19, "unit": "%"}, {"measurement": "1 µM GBD00276 (ibrutinib), % inhibition", "setting": "SYK", "value": 6.138, "unit": "%"}, {"measurement": "1 µM GBD00276 (ibrutinib), % inhibition", "setting": "TAOK2", "value": 11.03, "unit": "%"}, {"measurement": "1 µM GBD00276 (ibrutinib), % inhibition", "setting": "TNIK", "value": -56.63, "unit": "%"}, {"measurement": "1 µM GBD00276 (ibrutinib), % inhibition", "setting": "TSSK6", "value": 2.044, "unit": "%"}, {"measurement": "1 µM GBD00276 (ibrutinib), % inhibition", "setting": "ULK1", "value": -8.778, "unit": "%"}, {"measurement": "1 µM GBD00276 (ibrutinib), % inhibition", "setting": "YSK4", "value": 25.63, "unit": "%"}]}]}
